Publication PMC8480782, “Efficient Dimerization Disruption of Leishmania infantum Trypanothione Reductase by Triazole-phenyl-thiazoles” (Journal of Medicinal Chemistry, 2021)

Legend:
[1] = target: T1, LiTryR (Leishmania infantum, UniProt A4HSF7); assay: Trypanothione-dependent NADPH oxidation assay (initial velocities); type: biochemical
T1 construct: HIS (N); made in house; host or cells: E. coli BL21 (DE3) Rossetta
Experimental: Despite the loss of activity observed during the reaction, dependency of the initial velocities (vi) on 19a and TS2 concentrations could be fitted to a model in which a rapid equilibrium is reached between the free enzyme and inhibitor (E + I) and the enzyme/inhibitor (EI) complex (Scheme 4). This analysis, based on vi values, was performed both in a DTNB-coupled assay and in a direct NADPH-oxidation assay (Figure S1 and Table S1).
Figure S1. Noncompetitive hyperbolic inhibition of Li TryR by 19a. Initial velocities were used for determination of the KKi value and assessment of the inhibition modality of 19a by two different methods: DTNB-coupled assay (absorbance readings at 412 nm) (A) and trypanothione- dependent NADPH oxidation assay (absorbance readings at 340 nm) (B).
Lineweaver–Burk plots of reciprocal initial velocities ( vi) versus reciprocals of four TS2 concentrations (12.5, 25, 50 and 100 μM) are shown. Experimental conditions in both experiments were similar to those described in the experimental section except that for the NADPH oxidation assay NADPH concentration was raised to 500 µM, NADP+ to 100 µM and 4.8 mM of oxidized glutathione was added. Data were f itted using the hyperbolic noncompetitive- mode equation described by Leskovac: […]
Table S1. Estimation of β and Ki in the noncompetitive hyperbolic inhibition mechanism by […]

[2] = target: T1, LiTryR; assay: Residual activity of LiTryR after incubation with inhibitor and 2500-fold dilution; type: biochemical; conditions: LiTryR 400 nM, 25 μM inhibitor 16 h
Experimental: Adjustment to eq 1 (see equations in Experimental Section) of the progress curves of the reactions catalyzed by LiTryR allowed us to obtain the kobs values for six 19a concentrations (4.4, 5.9, 7.9, 10.5, 14.1, and 18.7 μM) at six different TS2 concentrations (3.1, 6.2, 12.5, 25, 50, and 100 μM) (Figures S2–S7 and Table S2). The different kobs values obtained at each substrate concentration can be used to determine the apparent inhibitory constants Ki^app and Ki*^app defined as the dissociation constant for the initial EI complex and the constant for the overall dissociation from E*I to E + I, respectively (eq 2).[42a],[42b] Based on the relationship among kobs, vi, and vs (k6 = kobs × vi/vs) at all of the trypanothione disulfide (TS2) and 19a concentrations assayed, k6 varies between 3.9 × 10^–6 and 6.5 × 10^–5 s^–1. […] Fixing this value for k6 rendered very good estimations of Ki^app and Ki*^app after the fitting process for all of the substrate concentrations assayed (Figure 3 and Table 2).
Scheme S4. Reversible sing le-step mechanism of t im e- dependent inhibition of Li TryR by […]
& A slow and reversible equilibrium between enzyme and inhibitor is governed by association and dissociation rate constants (k3 and k4, res pec tively).
Figure S13. Residual activity of Li TryR after incubation with 19a. […] Samples were diluted (2500-fold) and residual activity was evaluated. […]

T1 sequence (A4HSF7 1-491): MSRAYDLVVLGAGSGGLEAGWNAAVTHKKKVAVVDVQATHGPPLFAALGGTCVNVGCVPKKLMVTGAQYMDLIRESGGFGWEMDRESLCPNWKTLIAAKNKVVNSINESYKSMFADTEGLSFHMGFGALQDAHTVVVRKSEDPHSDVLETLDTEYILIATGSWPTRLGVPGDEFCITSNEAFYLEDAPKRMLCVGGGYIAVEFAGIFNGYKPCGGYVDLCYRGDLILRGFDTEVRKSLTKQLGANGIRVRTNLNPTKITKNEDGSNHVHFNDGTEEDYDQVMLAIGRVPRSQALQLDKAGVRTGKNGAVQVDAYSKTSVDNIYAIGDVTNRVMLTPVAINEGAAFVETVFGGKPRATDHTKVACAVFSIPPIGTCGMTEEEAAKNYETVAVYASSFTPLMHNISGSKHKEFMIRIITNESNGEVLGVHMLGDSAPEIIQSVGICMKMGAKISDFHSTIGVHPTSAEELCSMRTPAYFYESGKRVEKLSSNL

## NCCCCc1cn(-c2ccc(-c3nc(-c4ccccc4)c(-c4ccccc4)s3)c(OCCN3CCNC3=O)c2)nn1.O=C(O)C(F)(F)F [19a, 1-(2-(5-(4-(4-Ammoniobutyl)-1H-1,2,3-triazol-1-yl)-2-(4,5-diphenylthiazol-2-yl)phenoxy)ethyl)imidazolidin-2-one 2,2,2-Trifluoroacetate]
[1]
  Ki: 2.5 ± 0.7 µM
[1]; NADPH oxidation assay, initial velocities, alpha value of 1
  β, noncompetitive hyperbolic inhibition mechanism: 0.2 ± 0.1
[2]
  recovery of enzymatic activity after inactivation: extremely slow process of recovery of the enzymatic activity
